Reference: patent EP4417602A1, “SUBSTITUTED PYRAZOLE CARBOXAMIDES, SALTS THEREOF AND THEIR USE AS HERBICIDALLY ACTIVE SUBSTANCES” (Bayer AG, priority 2023, dated 2024)

What was measured:
ECHCG [1] = assay: A. Herbicidal pre-emergence action on harmful plants (Tables A); assay type: in vivo, Echinochloa crus-galli; conditions: visual grading after ca. 3 weeks vs untreated controls, 100% = plants have died off, 0% = as control plants
Summary of the method: (§1)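 Values are visual percent damage relative to untreated controls, scored ca. 3 weeks after the compound was sprayed on the covering soil of sown pots (sandy loam) at rates up to 1280 g/ha, formulated as WP or EC with 0.5% additive.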

LOLRI [2] = assay: as above; assay type: in vivo, Lolium rigidum; conditions: visual grading after ca. 3 weeks vs untreated controls, 100% = plants have died off, 0% = as control plants
Summary of the method: as §1

MATIN [3] = assay: as above; assay type: in vivo, Matricaria inodora; conditions: visual grading after ca. 3 weeks vs untreated controls, 100% = plants have died off, 0% = as control plants
Summary of the method: as §1

SETVI [4] = assay: as above; assay type: in vivo, Setaria viridis; conditions: visual grading after ca. 3 weeks vs untreated controls, 100% = plants have died off, 0% = as control plants
Summary of the method: as §1

STEME [5] = assay: as above; assay type: in vivo, Stellaria media; conditions: visual grading after ca. 3 weeks vs untreated controls, 100% = plants have died off, 0% = as control plants
Summary of the method: as §1

POAAN [6] = assay: as above; assay type: in vivo, Poa annua
Summary of the method: as §1

ALOMY [7] = assay: as above; assay type: in vivo, Alopecurus myosuroides
Summary of the method: as §1

DIGSA [8] = assay: as above; assay type: in vivo, Digitaria sanguinalis
Summary of the method: as §1

ECHCG [9] = assay: B. Herbicidal post-emergence action on harmful plants (Tables B); assay type: in vivo, Echinochloa crus-galli; conditions: application rate 1280 g/ha; Table B2a
Summary of the method: (§2)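 Greenhouse weeds grown in sandy loam were sprayed post-emergence at the one-leaf stage, 2-3 weeks after sowing. Compounds were applied as WP or EC in water with 0.5% additive at 600 L/ha, at 1280 g/ha or below. Visual damage was rated after about 3 weeks versus untreated plants (0-100%).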

LOLRI [10] = assay: as above; assay type: in vivo, Lolium rigidum; conditions: application rate 1280 g/ha; Table B3
Experimental: (§3) Seeds of mono- and dicotyledonous weed plants were placed in plastic pots in sandy loam soil (doubly sown with in each case one species of mono- or dicotyledonous weed plants per pot), covered with soil and cultivated in a greenhouse under controlled growth conditions. 2 to 3 weeks after sowing, the test plants were treated at the one-leaf stage. The compounds of the invention, formulated in the form of wettable powders (WP) or as emulsion concentrates (EC), were applied onto the green parts of the plants as aqueous suspension or emulsion with addition of 0.5% additive at a water application rate of 600 liters per hectare (converted). After the test plants had been kept in the greenhouse under optimum growth conditions for about 3 weeks, the activity of the preparations was rated visually in comparison to untreated controls. For example, 100% activity = the plants have died, 0% activity = like control plants. Tables B1 to B12, below, show the effects of selected compounds of the general formula (I) according to table 1 on various harmful plants and an application rate corresponding to 1280 g/ha or below obtained by the experimental procedure mentioned above. Table B1a: post-emergence activity at 1280g/ha against ABUTH in %

MATIN [11] = assay: as above; assay type: in vivo, Matricaria inodora
Summary of the method: as §2

STEME [12] = assay: as above; assay type: in vivo, Stellaria media; conditions: application rate 1280 g/ha; Table B6
Summary of the method: as §2

POAAN [13] = assay: as above; assay type: in vivo, Poa annua
Summary of the method: as §2

VERPE = assay: as above; assay type: in vivo, Veronica persica; conditions: application rate 1280 g/ha; Table B11a
Summary of the method: as §2

ALOMY [14] = assay: C. Herbicidal pre-emergence action, weed and crop plants (Tables C); assay type: in vivo, Alopecurus myosuroides; conditions: application rate 320 g/ha; Table C2a
Excerpt: (§4) Seeds of mono- and dicotyledonous weed plants and crop plants were sown, in plastic or organic planting pots, in sandy loam and covered with soil. The compounds according to the invention, formulated in the form of wettable powders (WP) or as emulsifiable concentrates (EC), were applied to the surface of the covering soil as aqueous suspension or emulsion, with the addition of 0.5% of an additive, at an application rate of 6001 of water/ha (converted). Following treatment, the pots were placed in a greenhouse and kept under optimum growth conditions for the test plants. The visual grading of the damage to the test plants was carried out after ca. 3 weeks in comparison to untreated controls (herbicidal effect in percent (%): 100% effect = plants have died off, 0% effect = as control plants). Tables C1 to C12 below show the effects of selected compounds of the general formula (I) according to table 1 on various harmful plants and an application rate corresponding to 320 g/ha or below obtained by the experimental procedure mentioned above. Table C1: pre-emergence activity at 320g/ha against KCHSC in %

DIGSA [15] = assay: as above; assay type: in vivo, Digitaria sanguinalis; conditions: application rate 320 g/ha; Table C5a
Excerpt: as §4

ECHCG [16] = assay: as above; assay type: in vivo, Echinochloa crus-galli; conditions: application rate 320 g/ha; Table C6a
Excerpt: as §4

MATIN [17] = assay: as above; assay type: in vivo, Matricaria inodora; conditions: application rate 320 g/ha; Table C8
Excerpt: as §4

VIOTR = assay: as above; assay type: in vivo, Viola tricolor; conditions: application rate 320 g/ha; Table C12a
Excerpt: as §4

ZEAMX [18] = assay: D. Pre-emergence effects on crop plants (Tables D); assay type: in vivo, Zea mays; conditions: crop plant; application rate 80 g/ha; Table D1b
Excerpt: (§5) Seeds of mono- and dicotyledonous weed plants and crop plants were sown, in plastic or organic planting pots, in sandy loam and covered with soil. The compounds according to the invention, formulated in the form of wettable powders (WP) or as emulsifiable concentrates (EC), were applied to the surface of the covering soil as aqueous suspension or emulsion, with the addition of 0.5% of an additive, at an application rate of 6001 of water/ha (converted).
(§6) Following treatment, the pots were placed in a greenhouse and kept under optimum growth conditions for the test plants. The visual grading of the damage to the test plants was carried out after ca. 3 weeks in comparison to untreated controls (herbicidal effect in percent (%): 100% effect = plants have died off, 0% effect = as control plants).
(§7) Tables D1 to D5 below show the effects of various compounds of the general formula (I) according to Table 1 on various crop plants and an application rate corresponding to 320 g/ha or below obtained by the experimental procedure mentioned above in Biological Examples, Section C. Table D1a: pre-emergence activity at 320g/ha against ZEAMX in %

GLXMA [19] = assay: D. Pre-emergence effects on crop plants (Tables D); assay type: in vivo, Glycine max; conditions: crop plant; application rate 80 g/ha; Table D4b
Excerpt: as §5, §6, §7

BRSNW [20] = assay: D. Pre-emergence effects on crop plants (Tables D); assay type: in vivo, Brassica napus; conditions: application rate 80 g/ha, crop plant
Excerpt: as §5, §6, §7

ZEAMX [21] = assay: F. Post-emergence effects on crop plants (Tables F); assay type: in vivo, Zea mays; conditions: crop plant
Excerpt: (§8) Seeds of mono- and dicotyledonous weed plants and crop plants were sown, in plastic or organic planting pots, in sandy loam, covered with soil and grown in a greenhouse under controlled growth conditions. 2 to 3 weeks after sowing, the test plants were sprayed in the single-leaf stage. The compounds according to the invention, formulated in form of wettable powders (WP) or as emulsifiable concentrates (EC), were sprayed onto the green plant parts as aqueous suspension or emulsion, with the addition of 0.5% of an additive, at an application rate of 6001 of water/ha (converted). The test plants were placed in the greenhouse for ca. 3 weeks under optimum growth conditions, and then the effect of the preparations was assessed visually in comparison with untreated controls (herbicidal effect in percent (%): 100% effect = plants have died off, 0% effect = as control plants). Tables F1 to F5 below show the effects of selected compounds of the general formula (I) according to table 1 on various crop plants and an application rate corresponding to 320 g/ha or below obtained by the experimental procedure mentioned above. Table […]: post-emergence activity at 320g/ha against ZEAMX in %

TRZAS = assay: as above; assay type: in vivo, Triticum aestivum; conditions: application rate 80 g/ha, crop plant
Excerpt: as §8

GLXMA [22] = assay: as above; assay type: in vivo, Glycine max; conditions: application rate 320 g/ha, crop plant
Excerpt: as §8

BRSNW [23] = assay: as above; assay type: in vivo, Brassica napus; conditions: application rate 80 g/ha, crop plant
Excerpt: as §8

SETVI [24] = assay: B. Herbicidal post-emergence action on harmful plants (Tables B); assay type: in vivo, Setaria viridis; conditions: application rate 1280 g/ha; Table B5
Experimental: as §3

[25] = application rate 80 g/ha, Table A7c
[26] = application rate 320 g/ha, Table A7b
[27] = application rate 1280 g/ha, visual grading after ca. 3 weeks vs untreated controls, 100% = plants have died off, 0% = as control plants
[28] = application rate 1280 g/ha, Table A9a
[29] = application rate 1280 g/ha, Table A12a
[30] = application rate 1280 g/ha, Table B7a

Structure (SMILES)	pre-emergence activity against ECHCG (ECHCG [1]; application rate 320 g/ha)	pre-emergence activity against ECHCG (ECHCG [1]; application rate 1280 g/ha)	pre-emergence activity against LOLRI (LOLRI [2]; application rate 320 g/ha)	pre-emergence activity against LOLRI (LOLRI [2]; application rate 1280 g/ha)	pre-emergence activity against MATIN (MATIN [3]; application rate 1280 g/ha)	pre-emergence activity against SETVI (SETVI [4]; application rate 320 g/ha)	pre-emergence activity against SETVI (SETVI [4]; application rate 1280 g/ha)	pre-emergence activity against STEME (STEME [5]; application rate 320 g/ha)	pre-emergence activity against STEME (STEME [5]; application rate 1280 g/ha)	pre-emergence activity against POAAN (POAAN [6]; [25])	pre-emergence activity against POAAN (POAAN [6]; [26])	pre-emergence activity against POAAN (POAAN [6]; [27])	pre-emergence activity against ALOMY (ALOMY [7]; [28])	pre-emergence activity against DIGSA (DIGSA [8]; [29])	post-emergence activity against LOLRI (LOLRI [10])	post-emergence activity against POAAN (POAAN [13]; [30])	also measured
COCc1nn(C)cc1C(=O)N1CCCC1Cc1ccccc1Br (racemic) [Example I-018]	90%	100%	100%	100%	90%	100%	100%	90%	90%	100%	100%	100%	100%	100%	90%	90%	pre-emergence activity against ECHCG (ECHCG [1]; application rate 80 g/ha): 90%; pre-emergence activity against LOLRI (LOLRI [2]; application rate 80 g/ha): 90%; pre-emergence activity against MATIN (MATIN [3]; application rate 80 g/ha): 90%; pre-emergence activity against MATIN (MATIN [3]; application rate 320 g/ha): 90%; pre-emergence activity against ALOMY (ALOMY [7]; application rate 320 g/ha, Table A9b): 90%; post-emergence activity against ECHCG (ECHCG [9]): 90%; post-emergence activity against MATIN (MATIN [11]; application rate 320 g/ha, Table B4b): 90%; post-emergence activity against MATIN (MATIN [11]; application rate 1280 g/ha, Table B4a): 90%; post-emergence activity against STEME (STEME [12]): 90%; post-emergence activity against POAAN (POAAN [13]; application rate 320 g/ha, Table B7b): 90%; post-emergence activity against VERPE (VERPE): 90%
Cn1cc(C(=O)N2CCCC2Cc2ccccc2F)c(COCC(F)F)n1 (racemic) [Example I-044]	90%	100%	90%	90%	90%	–	90%	–	90%	90%	100%	100%	90%	100%	–	–	pre-emergence activity against DIGSA (DIGSA [8]; application rate 320 g/ha, Table A12b): 90%; pre-emergence activity against ALOMY (ALOMY [14]): 90%; pre-emergence activity against DIGSA (DIGSA [15]): 90%; pre-emergence activity against ECHCG (ECHCG [16]): 90%; pre-emergence activity against MATIN (MATIN [17]): 90%; pre-emergence activity against VIOTR (VIOTR): 90%; pre-emergence activity against ZEAMX (ZEAMX [18]): 0%; pre-emergence activity against GLXMA (GLXMA [19]): 0%; pre-emergence activity against BRSNW in % (BRSNW [20]): 0%; post-emergence activity against ZEAMX in % (ZEAMX [21]; application rate 80 g/ha): 0%; post-emergence activity against ZEAMX in % (ZEAMX [21]; application rate 320 g/ha): 0%; post-emergence activity against TRZAS in % (TRZAS): 0%; post-emergence activity against GLXMA in % (GLXMA [22]): 0%; post-emergence activity against BRSNW in % (BRSNW [23]): 0%
COCc1c(C(=O)N2CCCC2Cc2c(F)cccc2F)cnn1C (racemic) [Example I-124]	90%	100%	90%	100%	100%	90%	90%	90%	90%	90%	100%	100%	–	90%	90%	90%	post-emergence activity against SETVI (SETVI [24]): 90%
